This is an account of results in ChEMBL document CHEMBL5321216, “Discovery of bipyridine amide derivatives targeting pRXRα-PLK1 interaction for anticancer therapy” (Eur J Med Chem, 2023).

Experiment [1] concerns A549. Put plainly: Antiproliferative activity against human A549 cells assessed as inhibition of cell proliferation incubated for 72 hrs by MTT assay. In kind it is functional, cell-based. Conditions: A549, 72 h. A general note: Tetrazolium assays rely on reduction of a dye to a coloured formazan, in cell work by metabolically active cells.
The next experiment relates to NCI-H460. The experiment in a line: Antiproliferative activity against human NCI-H460 cells assessed as inhibition of cell proliferation incubated for 72 hrs by MTT assay. It is filed as functional, cell-based. Conditions: NCI-H460, 72 h.
The subject of experiment [2] is A549. The experiment in a line: Induction of cell cycle arrest in RXRalpha knockout human A549 cells assessed as accumulation of cells at G2 phase at 125 nM incubated for 12 hrs by DAPI staining based flow cytometry analysis (reference value: 14.97%). It is filed as functional.
In experiment [3] the test system is A549. The experiment in a line: Induction of apoptosis in human A549 cells assessed as live cells at 250 nM incubated for 24 hrs by annexin V-FITC/PI staining based flow cytometry analysis (reference value: 93.2%). In kind it is functional. (In general: A flow cytometer gives signals particle by particle.)
The test system of experiment [4] is MDA-MB-231. The experiment in a line: Induction of cell cycle arrest in human MDA-MB-231 cells assessed as accumulation of cells at G1 phase at 31.25 nM incubated for 12 hrs by flow cytometry analysis (reference value: 43.2%). It is filed as functional.
In experiment [5] the test system is MDA-MB-231. Put plainly: Induction of cell cycle arrest in human MDA-MB-231 cells assessed as accumulation of cells at G2 phase at 31.25 nM incubated for 12 hrs by flow cytometry analysis (reference value: 15.91%). In kind it is functional.
In experiment [6] the test system is A549. The experiment in a line: Induction of cell cycle arrest in human A549 cells assessed as accumulation of cells at G2 phase at 62.5 nM incubated for 12 hrs by flow cytometry analysis (reference value: 8.62%). In kind it is functional.
Experiment [7] deals with MDA-MB-231. The experiment in a line: Induction of apoptosis in human MDA-MB-231 cells assessed as early apoptotic cells at 31.25 nM incubated for 24 hrs by annexin V-FITC/PI staining based flow cytometry analysis (reference value: 2.03%). In kind it is functional.
For experiment [8], the system named is MDA-MB-231. Put plainly: Antitumor activity against human MDA-MB-231 cells xenografted in BALB/c nude mouse assessed as nuclear shrinkage in tumor at 25 mg/kg/day, ip administered for 15 days by immunohistochemical analysis. In kind it is functional, organism-based. Conditions: time 15.0 day. Background: Xenograft models place foreign cells or tissue in a host animal.

Experiment [9] concerns MDA-MB-231. The experiment in a line: Induction of RXRalpha-mediated mitotic arrest in human MDA-MB-231 cells assessed as accumulation of pRXRalpha protein at 7.8 to 500 nM measured after 24 hrs by Western blot analysis. To be noted: dose 7.8-500 nM. It is filed as functional, cell-based.

pIC50: −log10 of the molar value. Active and inactive are the calls of the source. No cut-off for these calls is given here.

One may read the pIC50 as the IC50 on a negative log10 scale, so that one unit is a factor of ten. Turning to `O=C(/C=C/c1ccccc1)Nc1cc(-c2ccnc(N3CCC(CO)CC3)c2)ccn1`, the negative-log IC50 (pIC50) in the experiment on A549 [1] is 6.70; in the experiment with NCI-H460, 6.60. The Activity with A549 [2] is 45.99%; with A549 [3] it was 44.9%; in the experiment on MDA-MB-231 [4], 42.63%; in the experiment on MDA-MB-231 [5], 27.02%; with A549 [6] it was 12.89%; in the experiment on MDA-MB-231 [7], 2.24%. In addition, the result in the experiment with MDA-MB-231 [8] and in the experiment on MDA-MB-231 [9] was Active.
